Data: patent US8637511B2, “Aminopyrimidines useful as kinase inhibitors” (Vertex Pharmaceuticals Incorporated, priority 2005, dated 2014)
pKi: −log10 of the molar value. Several values for one entry are separate records, joined by “and”; a condition that tells them apart may be missing. Equal values may be shown once. Read-outs that look alike come from different tables or passages of the source.

Legend:
Format in all cases: biochemical
Aurora-2 (Aurora A) = molecular target: T1, Aurora-2 (Aurora A) (Homo sapiens, UniProt O14965); test: Aurora-2 (Aurora A) inhibition assay, coupled enzyme
T1 sequence (O14965 1-403): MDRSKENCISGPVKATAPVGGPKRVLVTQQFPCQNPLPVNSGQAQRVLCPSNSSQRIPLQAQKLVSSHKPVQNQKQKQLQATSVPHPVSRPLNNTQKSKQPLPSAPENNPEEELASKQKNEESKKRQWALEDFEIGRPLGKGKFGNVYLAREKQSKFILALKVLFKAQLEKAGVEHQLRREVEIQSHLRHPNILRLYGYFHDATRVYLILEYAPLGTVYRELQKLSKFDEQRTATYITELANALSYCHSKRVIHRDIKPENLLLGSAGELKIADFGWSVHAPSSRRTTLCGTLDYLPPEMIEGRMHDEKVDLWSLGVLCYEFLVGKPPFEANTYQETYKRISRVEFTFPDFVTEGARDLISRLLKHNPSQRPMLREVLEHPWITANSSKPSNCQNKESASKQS
How it was run: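 Coupled pyruvate kinase/lactate dehydrogenase assay with NADH in pH 7.5 Hepes containing MgCl2, DTT and NaCl, using 40 nM Aurora-2 at 30 °C. After a 10 min preincubation, enzyme addition started the reaction, and initial rates were taken over 10 min. IC50 and Ki came from non-linear regression.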

human Itk kinase = molecular target: T2, human Itk kinase (Homo sapiens, UniProt Q08881); test: Itk inhibition assay: radioactivity-based assay; conditions: Ki(app)
T2 sequence (Q08881 1-620): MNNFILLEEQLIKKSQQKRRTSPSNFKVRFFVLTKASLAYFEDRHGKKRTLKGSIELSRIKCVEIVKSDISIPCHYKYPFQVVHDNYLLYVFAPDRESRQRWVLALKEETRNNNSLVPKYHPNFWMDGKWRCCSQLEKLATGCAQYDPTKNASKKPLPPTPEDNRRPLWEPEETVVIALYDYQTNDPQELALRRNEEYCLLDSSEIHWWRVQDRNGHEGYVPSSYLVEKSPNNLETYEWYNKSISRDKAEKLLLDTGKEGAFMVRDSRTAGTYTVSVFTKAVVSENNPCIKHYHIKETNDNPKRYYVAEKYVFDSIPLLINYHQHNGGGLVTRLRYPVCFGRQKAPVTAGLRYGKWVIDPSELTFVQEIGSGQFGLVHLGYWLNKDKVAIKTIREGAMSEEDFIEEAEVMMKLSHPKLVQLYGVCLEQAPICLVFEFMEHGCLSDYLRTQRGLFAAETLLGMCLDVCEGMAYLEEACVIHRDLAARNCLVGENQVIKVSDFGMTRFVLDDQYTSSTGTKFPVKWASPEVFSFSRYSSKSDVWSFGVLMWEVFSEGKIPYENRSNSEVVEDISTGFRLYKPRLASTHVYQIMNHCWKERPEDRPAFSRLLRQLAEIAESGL
Procedure: The compounds of the present invention were evaluated as inhibitors of human Itk kinase using a radioactivity-based assay. These compounds can also be evaluated using a spectrophotometric or alphascreen assay.
Assays were carried out in a mixture of 20 mM MOPS (pH 7.0), 10 mM MgCl2, 0.1% BSA and 1 mM DTT. Final substrate concentrations in the assay were 7.5 μM [γ-^33P]ATP (400 μCi ^33P ATP/μmol ATP, Amersham Pharmacia Biotech/Sigma Chemicals) and 3 μM peptide (SAM68 protein Δ332-443). Assays were carried out at 25° C. in the presence of 50 nM Itk. An assay stock buffer solution was prepared containing all of the reagents listed above, with the exception of ATP and the test compound of interest. 50 μL of the stock solution was placed in a 96 well plate followed by addition of 2 μL of DMSO stock containing serial dilutions of the test compound (typically starting from a final concentration of 50 μM with 2-fold serial dilutions) in duplicate (final DMSO concentration 2%). The plate was pre-incubated for 10 minutes at 25° C. and the reaction initiated by addition of 50 μL [γ-^33P]ATP (final concentration 7.5 μM).
The reaction was stopped after 10 minutes by the addition of 100 μL 0.2M phosphoric acid+0.01% TWEEN 20. A multiscreen phosphocellulose filter 96-well plate (Millipore, Cat no. MAPHNOB50) was pretreated with 100 μL 0.2M phosphoric acid+0.01% TWEEN 20 prior to the addition of 170 μL of the stopped assay mixture. The plate was washed with 4×200 μL 0.2M phosphoric acid+0.01% TWEEN 20. After drying, 30 μL Optiphase ‘SuperMix’ liquid scintillation cocktail (Perkin Elmer) was added to the well prior to scintillation counting (1450 Microbeta Liquid Scintillation Counter, Wallac).
Ki(app) data were calculated from non-linear regression analysis of the initial rate data using the Prism software package (GraphPad Prism version 3.0cx for Macintosh, GraphPad Software, San Diego Calif., USA).

Aurora-1 (Aurora B) = Aurora-1 (Aurora B) (Homo sapiens, UniProt Q96GD4); test: Aurora-1 (Aurora B) inhibition assay (radiometric); conditions: read-out: Aurora B kinase Ki value
Aurora-1 (Aurora B), sequence (Q96GD4 whole entry): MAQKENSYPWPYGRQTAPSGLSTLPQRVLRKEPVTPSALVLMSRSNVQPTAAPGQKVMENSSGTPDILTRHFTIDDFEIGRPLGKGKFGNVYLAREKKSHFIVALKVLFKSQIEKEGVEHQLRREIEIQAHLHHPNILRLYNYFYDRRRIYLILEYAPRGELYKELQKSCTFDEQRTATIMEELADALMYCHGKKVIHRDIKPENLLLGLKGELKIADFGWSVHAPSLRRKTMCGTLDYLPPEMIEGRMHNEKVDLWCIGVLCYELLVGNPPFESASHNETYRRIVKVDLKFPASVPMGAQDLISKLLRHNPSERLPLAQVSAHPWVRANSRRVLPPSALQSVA
How it was run: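 Radiometric ^33P incorporation into peptide substrate, with [γ-^33P]-ATP at 800 μM final, in 25 mM HEPES pH 7.5, 10 mM MgCl2, 0.1% BSA, 10% glycerol. Compound preincubated with enzyme for 10 min at 25° C, reaction run 3 h, then captured on phosphocellulose. Ki from initial rates by non-linear regression after background subtraction.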

[1] = read-out: Aurora A kinase Ki value

Row | Compound | pKi (Aurora-2 (Aurora A); [1]) | pKi (human Itk kinase) | pKi (Aurora-1 (Aurora B)) | pKi (Aurora-2 (Aurora A))
1 | Cc1cnc(Nc2cc(N3CC(N(C)C)C3)nc(Sc3ccc(NC(=O)C4CC4)cc3)n2)s1 [Compound 1] | 6.70 to 8.30 | 6.00 to 7.00 | 7.30 to 8.00 | –
2 | Cc1cc(Nc2cc(N3CCC3)nc(Sc3ccc(C(=O)NCc4ccccc4)cc3)n2)n[nH]1 [Compound 19] | – | – | ≥ 8.00 | 6.70 to 8.30
3 | Cc1cc(Nc2cc(N3CCC3)nc(Sc3ccc(C(=O)N4CCCC4)cc3)n2)n[nH]1 [Compound 22] | – | – | 5.70 to 7.30 | 6.70 to 8.30
4 | Cc1cc(Nc2cc(N3CCC3)nc(Sc3ccc(C(=O)NC4CCCC4)cc3)n2)n[nH]1 [Compound 23] | 6.70 to 8.30 | – | 5.70 to 7.30 | –
5 | Cc1cc(Nc2cc(N3CCC3)nc(Sc3ccc(C(=O)NCc4ccccc4Cl)cc3)n2)n[nH]1 [Compound 24] | – | – | 5.70 to 7.30 | 6.70 to 8.30
6 | Cc1cc(Nc2cc(N3CCC3)nc(Sc3ccc(C(=O)Nc4ccccc4Cl)cc3)n2)[nH]n1 [Compound 48] | 8.30 to 9.00 | – | ≥ 8.00 | –
7 | CCCNC(=O)Nc1ccc(Sc2nc(Nc3cc(C)[nH]n3)cc(N3CCC3)n2)cc1 [Compound 73] | 6.70 to 8.30 | – | 5.70 to 7.30 | –
8 | Cc1cc(Nc2cc(N3CCC3)nc(Sc3ccc(NC(=O)NCc4ccccc4)cc3)n2)n[nH]1 [Compound 74] | 6.70 to 8.30 | – | 5.70 to 7.30 | –
9 | CCC(=O)Nc1ccc(Sc2nc(Nc3cc(C4CC4)n[nH]3)cc(N3CC(N4CCOCC4)C3)n2)cc1 [Compound 78] | ≥ 9.00 | – | ≥ 8.00 | –
10 | CCC(=O)Nc1ccc(Sc2nc(Nc3cc(C)n[nH]3)cc(N3CC(O)(C(F)(F)F)C3)n2)cc1 [Compound 94] | 8.30 to 9.00 | – | 7.30 to 8.00 and > 7.60 | –
11 | CCC(=O)Nc1ccc(Sc2nc(Nc3cc(C)n[nH]3)cc(N3CC(C)(OC(C)C)C3)n2)cc1 [Compound 95] | 8.30 to 9.00 | – | 7.30 to 8.00 and > 7.60 | –
12 | CCC(=O)Nc1ccc(Sc2nc(Nc3cc(C)n[nH]3)cc(N3CC(C)(OC(C)(C)C)C3)n2)cc1 [Compound 96] | 8.30 to 9.00 | – | 7.30 to 8.00 and > 7.60 | –
13 | Cc1cc(Nc2cc(N3CCC3)nc(Sc3ccc(N)cc3)n2)[nH]n1 [Compound 108] | 6.70 to 8.30 | – | 5.70 to 7.30 | –
14 | Cc1cc(Nc2cc(N3CCC3)nc(Sc3ccc(NC(=O)C4CC4(F)F)cc3)n2)[nH]n1 (centres unmarked) [Compound 112] | 8.30 to 9.00 | – | 7.30 to 8.00 and > 7.60 | –
15 | Cc1cc(Nc2cc(N3CCC3)nc(Sc3ccc(NC(=O)C(C)(C)C)cc3)n2)[nH]n1 [Compound 114] | 8.30 to 9.00 | – | 7.30 to 8.00 | –
16 | Cc1cc(Nc2cc(N3CC(C)(O)C3)nc(Sc3ccc(NC(=O)c4ccccc4C(F)(F)F)cc3)n2)[nH]n1 [Compound 115] | – | – | ≥ 8.00 | ≥ 9.00
17 | COc1ccc(C(=O)Nc2ccc(Sc3nc(Nc4cc(C)n[nH]4)cc(N4CCC4)n3)cc2)cc1 [Compound 117] | 8.30 to 9.00 | – | 7.30 to 8.00 | –
18 | Cc1cc(Nc2cc(N3CCC3)nc(Sc3ccc(NC(=O)CCC(F)(F)F)cc3)n2)[nH]n1 [Compound 121] | 8.30 to 9.00 | – | 7.30 to 8.00 and > 7.60 | –
19 | Cc1cc(Nc2cc(N3CCC3)nc(Sc3ccc(NC(=O)c4ccccc4N(C)C)cc3)n2)[nH]n1 [Compound 124] | 6.70 to 8.30 | – | 5.70 to 7.30 | –
20 | COC1CN(c2cc(Nc3cc(C)n[nH]3)nc(Sc3ccc(NC(=O)c4ccccc4C(F)(F)F)cc3)n2)C1 [Compound 126] | ≥ 9.00 | – | ≥ 8.00 | –
21 | Cc1cc(Nc2cc(N3CCC3)nc(Sc3ccc(NC(=O)C(C)CC(F)(F)F)cc3)n2)[nH]n1 (centres unmarked) [Compound 127] | 8.30 to 9.00 | – | 7.30 to 8.00 and > 7.60 | –

Row | Compound | pKi (Aurora-2 (Aurora A); [1]) | pKi (human Itk kinase) | pKi (Aurora-1 (Aurora B)) | pKi (Aurora-2 (Aurora A))
22 | Cc1cc(Nc2cc(N3CC(O)(C4CC4)C3)nc(Sc3ccc4ccccc4c3)n2)n[nH]1 [Compound 131] | ≥ 9.00 | – | 5.70 to 7.30 | –
23 | Cc1cc(Nc2cc(N3CCC3)nc(Oc3ccc(NC(=O)c4ccccc4C(F)(F)F)cc3)n2)[nH]n1 [Compound 134] | 8.30 to 9.00 | – | 7.30 to 8.00 and > 7.60 | –
24 | Cc1cc(Nc2cc(N3CCC3)nc(Sc3ccc(NC(=O)c4ccc(CN(C)C)cc4)cc3)n2)[nH]n1 [Compound 137] | 6.70 to 8.30 | – | 5.70 to 7.30 | –
25 | Cc1ccc(C(=O)Nc2ccc(Sc3nc(Nc4cc(C)n[nH]4)cc(N4CCC4)n3)cc2)cn1 [Compound 145] | 6.70 to 8.30 | – | 5.70 to 7.30 | –
26 | Cc1cc(Nc2cc(N3CCC3)nc(Sc3ccc(NC(=O)c4ccncc4C(F)(F)F)cc3)n2)[nH]n1 [Compound 146] | ≥ 9.00 | – | ≥ 8.00 | –
27 | O=C(CC(F)(F)F)Nc1ccc(Sc2nc(Nc3cc[nH]n3)cc(N3CC(F)(C4CC4)C3)n2)cc1 [Compound 148] | 8.30 to 9.00 | – | 5.70 to 7.30 | –
28 | Cc1cc(Nc2cc(N3CCC3)nc(Sc3ccc(NC(=O)c4cc(C)nc(Cl)c4)cc3)n2)[nH]n1 [Compound 149] | 8.30 to 9.00 | – | 7.30 to 8.00 | –
29 | Cc1cc(Nc2cc(N3CCC3)nc(Sc3ccc(NS(C)(=O)=O)cc3)n2)[nH]n1 [Compound 150] | 6.70 to 8.30 | – | 5.70 to 7.30 | –
30 | Cc1cc(Nc2cc(N3CCC3)nc(Sc3ccc(NC(=O)C(F)(F)F)cc3)n2)[nH]n1 [Compound 158] | 8.30 to 9.00 | – | ≥ 8.00 | –
31 | Cc1cc(Nc2cc(N3CC(N4CCCC4)C3)nc(Sc3ccc4ncccc4c3)n2)n[nH]1 [Compound 159] | 8.30 to 9.00 | – | ≥ 8.00 | –
32 | Cc1cc(Nc2cc(N3CC(N4CC[C@H](F)C4)C3)nc(Sc3ccc4ncccc4c3)n2)n[nH]1 [Compound 160] | – | – | ≥ 8.00 | ≥ 9.00
33 | Cc1cc(Nc2cc(N3CC(F)(C4CC4)C3)nc(Sc3ccc(-c4ncc(C)o4)cc3)n2)[nH]n1 [Compound 175] | 6.70 to 8.30 | – | 5.70 to 7.30 | –
34 | Cc1ccc2cc(Sc3nc(Nc4cc(C)[nH]n4)cc(N4CC(N5CCCC5)C4)n3)ccc2n1 [Compound 182] | 8.30 to 9.00 | – | 7.30 to 8.00 and > 7.60 | –
35 | CC(=O)Nc1cccc(Sc2nc(Nc3cc(C)n[nH]3)cc(N3CC(F)(C4CC4)C3)n2)c1 [Compound 188] | 6.70 to 8.30 | – | 7.30 to 8.00 | –
36 | Cc1cc(Nc2cc(N3CC(F)(C4CC4)C3)nc(Sc3ccc4nc(C(F)(F)F)cn4c3)n2)[nH]n1 [Compound 190] | 8.30 to 9.00 | – | 7.30 to 8.00 | –
37 | Cc1cc(Nc2cc(N3CC(N4CCOCC4)C3)nc(Sc3ccc(NC(=O)C4(C(F)(F)F)CC4)cc3)n2)[nH]n1 [Compound 191] | ≥ 9.00 | – | ≥ 8.00 | –
38 | Cc1ccc2cc(Sc3nc(Nc4cc(C)[nH]n4)cc(N4CC(C5CCC(F)C5)C4)n3)ccc2n1 (centres unmarked) [Compound 198] | 8.30 to 9.00 | – | 7.30 to 8.00 and > 7.60 | –
39 | Cc1cc(Nc2cc(N3CC(N4CCOCC4)C3)nc(Sc3ccc(NC(=O)CC(F)(F)F)cc3)n2)[nH]n1 [Compound 199] | ≥ 9.00 | – | ≥ 8.00 | –
40 | Cc1cc(Nc2cc(N3CC(F)(C4CC4)C3)nc(Sc3ccc4nc(C(F)(F)F)[nH]c4c3)n2)[nH]n1 [Compound 202] | 8.30 to 9.00 | – | 7.30 to 8.00 and > 7.60 | –
41 | Cc1cc(Nc2cc(N3CC(F)(C4CC4)C3)nc(Sc3ccc(N)cc3)n2)[nH]n1 [Compound 209] | 6.70 to 8.30 | – | 5.70 to 7.30 | –
